Data: ChEMBL document CHEMBL1201862, “PubChem BioAssay data set” (2004)
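The compound was tested at five concentrations on cells cultured in 96-well plates, with a 48-hour exposure period. GI50 = concentration required for 50% inhibition of growth.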 Calls of active or inactive are those of the source. Rule as the data show it: active = GI50 up to about 1.1 µM and inactive = higher.

Key:
Assay in all cases: NCI tumour cell line growth inhibition, 48 h
RXF 631 = system: RXF 631
DMS-114 = system: DMS-114
LXFL 529 = system: LXFL 529
DMS-273 = system: DMS-273
KM-20L2 = system: KM-20L2
SNB-78 = system: SNB-78
HOP-18 = system: HOP-18
M19-MEL = system: M19-MEL
XF498 = system: XF498

`O=C1NC2C(=CC(O)C(O)C2O)c2cc3c(cc21)OCO3` (stereo not given) was tested, and the GI50 (RXF 631) was 0.433 µM (active), the GI50 (DMS-114) was 0.43 µM (active) and the GI50 (LXFL 529) was 0.43 µM (active). The GI50 (DMS-273) was 0.436 µM (active), the GI50 (KM-20L2) was 0.305 µM (active) and the GI50 (SNB-78) was 0.569 µM (active). For the same compound, the GI50 (HOP-18) was 1.48 µM (inactive), the GI50 (M19-MEL) was 0.251 µM (active) and the GI50 (XF498) was 0.171 µM (active).
In the case of `Cc1ccc2c(C)c3ccc4ccccc4c3c[n+]2c1.[O-][Cl+3]([O-])([O-])[O-]`, the GI50 (DMS-114) was 10.6 µM (inactive), the GI50 (LXFL 529) was 9.1 µM (inactive) and the GI50 (DMS-273) was 11.5 µM (inactive). For the same compound, the GI50 (KM-20L2) was 33.3 µM (inactive), the GI50 (SNB-78) was 41.4 µM (inactive) and the GI50 (HOP-18) was 12.4 µM (inactive). For the same compound, the GI50 (M19-MEL) was 4.88 µM (inactive).
In the case of `COC(=O)C(/C(=N/N)C(=O)Nc1cc(Cl)ccc1Cl)c1nc2ccc([N+](=O)[O-])cc2nc1O` (stereo not given), the GI50 (DMS-114) was 50.2 µM (inactive), the GI50 (LXFL 529) was 48 µM (inactive) and the GI50 (DMS-273) was 57.3 µM (inactive). The GI50 (KM-20L2) was 49.9 µM (inactive), the GI50 (SNB-78) was > 100 µM (inactive) and the GI50 (XF498) was > 100 µM (inactive).
With `N#Cc1ccc(/C=N/C23CC4CC(CC(C4)C2)C3)cc1` the GI50 (RXF 631) was 32.5 µM (inactive), the GI50 (DMS-114) was 56 µM (inactive) and the GI50 (DMS-273) was 98.2 µM (inactive). For the same compound, the GI50 (KM-20L2) was > 100 µM (inactive), the GI50 (SNB-78) was > 100 µM (inactive) and the GI50 (M19-MEL) was > 100 µM (inactive).
For `O=c1[nH]nc2ccccc2c1Cc1ccccc1`, the GI50 (DMS-114) was > 100 µM (inactive), the GI50 (DMS-273) was > 100 µM (inactive) and the GI50 (KM-20L2) was > 100 µM (inactive). For the same compound, the GI50 (SNB-78) was > 100 µM (inactive), the GI50 (HOP-18) was > 100 µM (inactive) and the GI50 (M19-MEL) was > 100 µM (inactive). The GI50 (XF498) was > 100 µM (inactive).
With `CC(=O)C1C(=O)N(C(C)C)C[C@@H]2CCC(=O)C[C@H]12` (stereo not given in full) the GI50 (RXF 631) was > 100 µM (inactive), the GI50 (DMS-114) was > 100 µM (inactive) and the GI50 (LXFL 529) was > 100 µM (inactive). For the same compound, the GI50 (DMS-273) was > 100 µM (inactive), the GI50 (SNB-78) was > 100 µM (inactive) and the GI50 (M19-MEL) was > 100 µM (inactive). The GI50 (XF498) was > 100 µM (inactive).
In the case of `CCN(N=O)C1C2(CCCC2)NC(=O)C12CCCC2` (stereo not given), the GI50 (RXF 631) was > 100 µM (inactive), the GI50 (DMS-114) was > 100 µM (inactive) and the GI50 (LXFL 529) was > 100 µM (inactive). For the same compound, the GI50 (KM-20L2) was > 100 µM (inactive), the GI50 (SNB-78) was > 100 µM (inactive) and the GI50 (HOP-18) was > 100 µM (inactive). The GI50 (M19-MEL) was > 100 µM (inactive) and the GI50 (XF498) was > 100 µM (inactive).
`CCOC(=O)c1nc2ccc(Cl)cc2c2c1CCO2` was tested, and the GI50 (DMS-114) was 64.3 µM (inactive), the GI50 (LXFL 529) was 51.4 µM (inactive) and the GI50 (DMS-273) was > 100 µM (inactive). For the same compound, the GI50 (KM-20L2) was > 100 µM (inactive), the GI50 (SNB-78) was > 100 µM (inactive) and the GI50 (HOP-18) was 23.6 µM (inactive). The GI50 (M19-MEL) was > 100 µM (inactive) and the GI50 (XF498) was 72.8 µM (inactive).
For `CC(C)C1CCC/C=C/C=C/C=C/C=C/C(OC2OC(C)C(O)C(N)C2O)CC2OC(O)(CC(O)CC(O)C(O)CCC(=O)O1)CC(O)C2C(=O)O` (stereo not given), the GI50 (DMS-114) was > 52.5 µM (inactive), the GI50 (LXFL 529) was > 52.5 µM (inactive) and the GI50 (KM-20L2) was > 52.5 µM (inactive). For the same compound, the GI50 (SNB-78) was > 52.5 µM (inactive), the GI50 (HOP-18) was > 52.5 µM (inactive) and the GI50 (M19-MEL) was > 52.5 µM (inactive).
With `C=CNC(=O)NC(=O)CSc1nc(=O)c(-c2ccccc2NC(=O)C(F)(F)F)n[nH]1` the GI50 (DMS-114) was 21.1 µM (inactive), the GI50 (LXFL 529) was > 100 µM (inactive) and the GI50 (DMS-273) was 43.9 µM (inactive). The GI50 (SNB-78) was 25.2 µM (inactive), the GI50 (M19-MEL) was > 100 µM (inactive) and the GI50 (XF498) was 33.9 µM (inactive).
With `Cc1c2n(c(=O)[nH]c1=O)C1OC(CO)C(O2)C1O` (stereo not given) the GI50 (DMS-114) was > 100 µM (inactive), the GI50 (LXFL 529) was > 100 µM (inactive) and the GI50 (DMS-273) was > 100 µM (inactive). For the same compound, the GI50 (KM-20L2) was > 100 µM (inactive), the GI50 (SNB-78) was > 100 µM (inactive) and the GI50 (M19-MEL) was > 100 µM (inactive).
In the case of `O=C(c1ccc(Cl)cc1)N(C(=S)N1CCN(c2ccccn2)CC1)C1CCCCC1`, the GI50 (DMS-114) was 34.9 µM (inactive), the GI50 (LXFL 529) was 75.7 µM (inactive) and the GI50 (DMS-273) was 34.3 µM (inactive). For the same compound, the GI50 (KM-20L2) was 74.1 µM (inactive), the GI50 (SNB-78) was > 100 µM (inactive) and the GI50 (HOP-18) was > 100 µM (inactive). For the same compound, the GI50 (M19-MEL) was > 100 µM (inactive) and the GI50 (XF498) was 8.26 µM (inactive).
In the case of `CCc1c(Cc2[nH]c(Cc3[nH]c(C=O)c(C)c3CC)c(CC)c2CC)[nH]c(C=O)c1C`, the GI50 (DMS-114) was > 100 µM (inactive), the GI50 (LXFL 529) was > 100 µM (inactive) and the GI50 (DMS-273) was > 100 µM (inactive). The GI50 (KM-20L2) was > 100 µM (inactive), the GI50 (SNB-78) was > 100 µM (inactive) and the GI50 (HOP-18) was > 100 µM (inactive). The GI50 (M19-MEL) was > 100 µM (inactive) and the GI50 (XF498) was > 100 µM (inactive).
`O=C(O)c1ccccc1/N=N/c1ccc2oc(=O)c(C(=O)Nc3ccccc3)cc2c1` was tested, and the GI50 (DMS-114) was 25.1 µM (inactive), the GI50 (DMS-273) was 39 µM (inactive) and the GI50 (KM-20L2) was 24.8 µM (inactive). The GI50 (HOP-18) was 30.1 µM (inactive), the GI50 (M19-MEL) was 33.3 µM (inactive) and the GI50 (XF498) was 45.8 µM (inactive).
With `COC(=O)Cc1cc(=O)oc2c1C(=O)CCC2` the GI50 (DMS-114) was > 100 µM (inactive), the GI50 (LXFL 529) was > 100 µM (inactive) and the GI50 (DMS-273) was > 100 µM (inactive). The GI50 (KM-20L2) was > 100 µM (inactive), the GI50 (SNB-78) was > 100 µM (inactive) and the GI50 (M19-MEL) was > 100 µM (inactive). The GI50 (XF498) was > 100 µM (inactive).
`Cc1c(C(=O)/C=C/c2c(Cl)cccc2Cl)c(=O)n(-c2ccccc2)n1C` was tested, and the GI50 (DMS-114) was 22.7 µM (inactive), the GI50 (LXFL 529) was 5.47 µM (inactive) and the GI50 (DMS-273) was 4.82 µM (inactive). The GI50 (KM-20L2) was 19.6 µM (inactive), the GI50 (SNB-78) was 6.24 µM (inactive) and the GI50 (M19-MEL) was 8.55 µM (inactive). For the same compound, the GI50 (XF498) was 19.6 µM (inactive).
For `C[S+](C)CCOC(=O)C(=[N+]=[N-])c1ccc([N+](=O)[O-])cc1`, the GI50 (RXF 631) was > 100 µM (inactive), the GI50 (DMS-114) was > 100 µM (inactive) and the GI50 (LXFL 529) was > 100 µM (inactive). For the same compound, the GI50 (DMS-273) was > 100 µM (inactive), the GI50 (KM-20L2) was > 100 µM (inactive) and the GI50 (SNB-78) was > 100 µM (inactive). The GI50 (HOP-18) was > 100 µM (inactive), the GI50 (M19-MEL) was > 100 µM (inactive) and the GI50 (XF498) was > 100 µM (inactive).
For `COC1(OC)C(N(C)C)=C(Cl)C(=O)/C1=C/C=O`, the GI50 (DMS-114) was > 100 µM (inactive), the GI50 (LXFL 529) was > 100 µM (inactive) and the GI50 (DMS-273) was > 100 µM (inactive). For the same compound, the GI50 (KM-20L2) was > 100 µM (inactive), the GI50 (HOP-18) was > 100 µM (inactive) and the GI50 (M19-MEL) was 74.6 µM (inactive).
With `COC1OC(C)C(O)CC1OS(=O)(=O)c1ccc(C)cc1` (stereo not given) the GI50 (DMS-114) was > 100 µM (inactive), the GI50 (LXFL 529) was > 100 µM (inactive) and the GI50 (DMS-273) was > 100 µM (inactive). The GI50 (KM-20L2) was > 100 µM (inactive), the GI50 (SNB-78) was > 100 µM (inactive) and the GI50 (HOP-18) was > 100 µM (inactive). For the same compound, the GI50 (M19-MEL) was > 100 µM (inactive).
For `CC(C)(C)c1cc(C(P(=O)(O)O)P(=O)(O)O)cc(C(C)(C)C)c1O`, the GI50 (DMS-114) was > 100 µM (inactive), the GI50 (LXFL 529) was > 100 µM (inactive) and the GI50 (DMS-273) was > 100 µM (inactive). The GI50 (KM-20L2) was > 100 µM (inactive), the GI50 (SNB-78) was > 100 µM (inactive) and the GI50 (HOP-18) was > 100 µM (inactive). The GI50 (M19-MEL) was > 100 µM (inactive).
With `Nc1ccn(C2(CO)C=C(CO)C(O)C2O)c(=O)n1` (stereo not given) the GI50 (DMS-114) was > 25.8 µM (inactive), the GI50 (LXFL 529) was > 25.8 µM (inactive) and the GI50 (DMS-273) was > 25.8 µM (inactive). The GI50 (KM-20L2) was > 25.8 µM (inactive), the GI50 (SNB-78) was > 25.8 µM (inactive) and the GI50 (HOP-18) was > 25.8 µM (inactive). The GI50 (M19-MEL) was > 25.8 µM (inactive).
`COc1cc(O)c2c(c1)C(=O)C1=C(C2=O)C(O)C[C@@](C)(O)C1` (stereo not given in full) was tested, and the GI50 (DMS-114) was 1.5 µM (inactive), the GI50 (LXFL 529) was 0.582 µM (active) and the GI50 (DMS-273) was 1.57 µM (inactive). For the same compound, the GI50 (KM-20L2) was 3.36 µM (inactive), the GI50 (SNB-78) was 1.9 µM (inactive) and the GI50 (M19-MEL) was 0.452 µM (active). The GI50 (XF498) was 1.9 µM (inactive).
